Tests used:
[1] = target: T1, RAGE (receptor for advanced glycation end products) (Homo sapiens, UniProt Q15109); assay: SPR (Biacore 1S+, CM5 chip, RAGE immobilized, multi-cycle kinetics); assay type: binding
T1 construct: gene AGER

[2] = target: T1, RAGE (receptor for advanced glycation end products); assay: SPR (Biacore 1S+, CM5 chip, RAGE immobilized, multi-cycle kinetics); known RAGE inhibitor as reference; assay type: binding

T1 sequence (Q15109 23-344): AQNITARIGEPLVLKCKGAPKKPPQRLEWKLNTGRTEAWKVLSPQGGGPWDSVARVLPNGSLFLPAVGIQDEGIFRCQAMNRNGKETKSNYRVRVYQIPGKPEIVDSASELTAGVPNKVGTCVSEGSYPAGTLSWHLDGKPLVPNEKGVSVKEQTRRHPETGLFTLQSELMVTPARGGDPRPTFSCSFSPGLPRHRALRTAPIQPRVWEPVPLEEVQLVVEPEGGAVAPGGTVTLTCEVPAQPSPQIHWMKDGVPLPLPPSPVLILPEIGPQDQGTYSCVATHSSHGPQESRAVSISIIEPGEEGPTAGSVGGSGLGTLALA

Kd [2] | SMILES | Kd [1]
– | O=C1c2c(O)cc(O)cc2O[C@H](c2cc(O)c(O)c(O)c2)[C@H]1O [DHM, Dihydromyricetin] | 28.7 µM
40.7 µM | O=C(c1ccc(Cl)cc1)N(Cc1ccccc1)C1CCCCC1 [FPS-ZM1] | –

Source: publication PMC12156997, “Dihydromyricetin May Attenuate Skin Aging as a RAGE Inhibitor” (Nutrients, 2025)
